Laboratory results: the supplement of paper PMC13380429

What was measured:
Settings in all cases: 72 h
Vero E6 [1] = assay: drug sensitivity score (DSS) for viability; higher = more toxic; extreme values may be limits of the assay
U2OS [2] = assay: as above
Calu-3 [3] = assay: as above
Caco-2 [4] = assay: as above
Vero E6 [5] = assay: relative viability EC50 (midpoint between 100% and the lowest measured viability); higher = less toxic
U2OS [6] = assay: as above
Calu-3 [7] = assay: as above
Caco-2 [8] = assay: as above
Vero E6 [9] = assay: cell viability relative to DMSO; higher = less toxic
U2OS [10] = assay: as above
Calu-3 [11] = assay: as above
Caco-2 [12] = assay: as above
HepG2 [13] = assay: drug sensitivity score (DSS) for viability; higher = more toxic; extreme values may be limits of the assay
HepG2 [14] = assay: relative viability EC50 (midpoint between 100% and the lowest measured viability); higher = less toxic
HepG2 [15] = assay: cell viability relative to DMSO; higher = less toxic

| SMILES | drug sensitivity score (Vero E6 [1]) | drug sensitivity score (U2OS [2]) | drug sensitivity score (Calu-3 [3]) | drug sensitivity score (Caco-2 [4]) | relative viability EC50 (Vero E6 [5]) [µM] | relative viability EC50 (U2OS [6]) [µM] | relative viability EC50 (Calu-3 [7]) [µM] | relative viability EC50 (Caco-2 [8]) [µM] | cell viability (Vero E6 [9]; 1 nM) [%] | cell viability (Vero E6 [9]; 10 nM) [%] | cell viability (Vero E6 [9]; 100 nM) [%] | cell viability (Vero E6 [9]; 1000 nM) [%] | cell viability (Vero E6 [9]; 10000 nM) [%] | cell viability (U2OS [10]; 1 nM) [%] | cell viability (U2OS [10]; 10 nM) [%] | cell viability (U2OS [10]; 100 nM) [%] | cell viability (U2OS [10]; 1000 nM) [%] | cell viability (U2OS [10]; 10000 nM) [%] | cell viability (Calu-3 [11]; 1 nM) [%] | cell viability (Calu-3 [11]; 10 nM) [%] | cell viability (Calu-3 [11]; 100 nM) [%] | cell viability (Calu-3 [11]; 1000 nM) [%] | cell viability (Calu-3 [11]; 10000 nM) [%] | cell viability (Caco-2 [12]; 1 nM) [%] | cell viability (Caco-2 [12]; 10 nM) [%] | cell viability (Caco-2 [12]; 100 nM) [%] | cell viability (Caco-2 [12]; 1000 nM) [%] | cell viability (Caco-2 [12]; 10000 nM) [%] | drug sensitivity score (HepG2 [13]) | relative viability EC50 (HepG2 [14]) [µM] | cell viability (HepG2 [15]; 1 nM) [%] | cell viability (HepG2 [15]; 10 nM) [%] | cell viability (HepG2 [15]; 100 nM) [%] | cell viability (HepG2 [15]; 1000 nM) [%] | cell viability (HepG2 [15]; 10000 nM) [%] |
| --- | --- | --- | --- | --- | --- | --- | --- | --- | --- | --- | --- | --- | --- | --- | --- | --- | --- | --- | --- | --- | --- | --- | --- | --- | --- | --- | --- | --- | --- | --- | --- | --- | --- | --- | --- |
| COc1cc(C(=O)NCCCCCC(=O)O)cc(OC)c1OC [capobenic-acid] | 0 | 0 | 0 | 3.1 | > 10 | > 10 | > 10 | > 10 | 103 | 101 | 99 | 101 | 94.6 | 97 | 103 | 94.7 | 111 | 94 | 96.3 | 94.9 | 94.5 | 104 | 98.6 | 110 | 111 | 96.7 | 80.2 | 93.5 |  |  |  |  |  |  |  |
| CC(=O)Nc1ccc(OC(C)=O)cc1 [diacetamate] | 0 |  | 0.2 | 0 | > 10 |  | > 10 | > 10 | 96.1 | 96 | 94.3 | 84.8 | 101 |  |  |  |  |  | 99.1 | 99.7 | 99.7 | 101 | 84.9 | 91.8 | 103 | 94.7 | 101 | 111 | 0 | > 10 | 114 | 98.5 | 110 | 101 | 105 |
| C=C1CC/C=C(\C)CC[C@@H]2[C@@H]1CC2(C)C [g-caryophyllene] | 0 | 0 |  | 0.2 | > 10 | > 10 |  | > 10 | 103 | 89.3 | 104 | 94.8 | 100 | 92.8 | 101 | 95.3 | 99.9 | 99 |  |  |  |  |  | 109 | 112 | 97.3 | 121 | 80.6 | 0 | > 10 | 105 | 95.5 | 113 | 104 | 94.9 |
| COc1ccc(C2=N[C@@H](c3ccc(Cl)cc3)[C@@H](c3ccc(Cl)cc3)N2C(=O)N2CCNC(=O)C2)c(OC(C)C)c1 [nutlin-3] | 2.1 | 1.1 | 0 | 0 |  | > 10 | > 10 | > 10 | 106 | 98.9 | 94.5 | 97.5 | 63.7 | 94.7 | 93.6 | 95.3 | 98.7 | 75.2 | 91.6 | 98.1 | 89.7 | 92.4 | 108 | 94.2 | 92.1 | 92.5 | 97.9 | 89.1 | 5.3 | 1.95 | 104 | 115 | 109 | 89.7 | 35 |
| NNCCc1ccccc1 [phenelzine] | 0 | 0 |  | 1.4 | > 10 | > 10 |  | > 10 | 105 | 103 | 101 | 90.3 | 98 | 98.4 | 98.7 | 94.6 | 99.8 | 95.1 |  |  |  |  |  | 88.4 | 100 | 93.4 | 92.6 | 75.1 | 0 | > 10 | 109 | 92.8 | 84.1 | 120 | 91.4 |
| CCc1[nH]c(=O)[nH]c1C(=O)c1ccncc1 [piroximone] | 0 | 0 | 0 | 0 | > 10 | > 10 | > 10 | > 10 | 99 | 94.6 | 96.8 | 93.3 | 94.6 | 93.5 | 103 | 94.6 | 102 | 94.1 | 103 | 110 | 99.3 | 95.2 | 89.3 | 96.4 | 95.2 | 88.7 | 99.4 | 94.6 |  |  |  |  |  |  |  |
| CC(C)N(CCCCOCC(=O)NS(C)(=O)=O)c1cnc(-c2ccccc2)c(-c2ccccc2)n1 [selexipag] | 0 |  | 0 | 0 | > 10 |  | > 10 | > 10 | 100 | 102 | 93 | 98.4 | 93.2 |  |  |  |  |  | 95 | 105 | 97.3 | 110 | 105 | 110 | 103 | 94.5 | 107 | 105 |  |  |  |  |  |  |  |
| CC1=CC[C@@H](C(C)(C)O)C[C@@H]1O [sobrepin] | 0 |  |  | 0 | > 10 |  |  | > 10 | 98 | 99.7 | 96.3 | 98.1 | 90.7 |  |  |  |  |  |  |  |  |  |  | 109 | 121 | 94.4 | 103 | 87.9 | 0 | > 10 | 109 | 99.6 | 114 | 103 | 110 |
| O=C(OC[C@H]1O[C@@H](OC(=O)c2cc(O)c(O)c(OC(=O)c3cc(O)c(O)c(O)c3)c2)[C@H](OC(=O)c2cc(O)c(O)c(OC(=O)c3cc(O)c(O)c(O)c3)c2)[C@@H](OC(=O)c2cc(O)c(O)c(OC(=O)c3cc(O)c(O)c(O)c3)c2)[C@@H]1OC(=O)c1cc(O)c(O)c(OC(=O)c2cc(O)c(O)c(O)c2)c1)c1cc(O)c(O)c(OC(=O)c2cc(O)c(O)c(O)c2)c1 [tannic-acid] | 5.7 | 2.7 | 0.4 | 3.2 | 1.1 |  | > 10 | 3.04 | 103 | 109 | 102 | 77.4 | 48.8 | 97.7 | 98.5 | 93.7 | 97.8 | 53.1 | 94.4 | 99.9 | 98.6 | 108 | 78.8 | 99.6 | 93.5 | 90.5 | 99.1 | 43.5 | 0.8 |  | 108 | 94.6 | 104 | 104 | 74.2 |
| c1cnc(SCc2cccnc2)nc1 [tasuldine] | 0 | 0 |  | 0 | > 10 | > 10 |  | > 10 | 105 | 98.5 | 96.7 | 102 | 99.7 | 101 | 96.3 | 101 | 94.3 | 99.9 |  |  |  |  |  | 96.5 | 96.9 | 101 | 94.8 | 101 | 0 | > 10 | 105 | 105 | 105 | 106 | 97.9 |
| CC(C)OC(=O)[C@H](C)N[P@](=O)(CO[C@H](C)Cn1cnc2c(N)ncnc21)Oc1ccccc1 [tenofovir-alafenamide] |  | 0 | 0.5 | 0 |  | > 10 | > 10 | > 10 |  |  |  |  |  | 99.4 | 102 | 97.4 | 100 | 95.6 | 106 | 97.4 | 112 | 104 | 78.9 | 99.3 | 100 | 98.2 | 108 | 94.3 | 4.8 | 1.75 | 98.8 | 91.9 | 116 | 89 | 44.6 |
| CCCCCCCCCCCCCCCC[N+](C)(C)CCN(Cc1ccc(OC)cc1)c1ncccn1 [thonzonium] | 0.4 |  | 7.9 | 8.3 | > 10 |  | 2.04 | 1.69 | 96 | 97.8 | 94.6 | 97.5 | 85.6 |  |  |  |  |  | 102 | 100 | 96.3 | 85.8 | -0.1 | 106 | 98.1 | 110 | 80.3 | 7.2 | 3.9 | 3.41 | 94.4 | 101 | 93.8 | 103 | 24.4 |
| N#Cc1cc(-c2n[nH]c(-c3ccncc3)n2)ccn1 [topiroxostat] | 0 |  | 0 | 0 | > 10 |  | > 10 | > 10 | 102 | 103 | 101 | 102 | 99.8 |  |  |  |  |  | 103 | 87.4 | 107 | 95.1 | 118 | 98.2 | 92.9 | 89.6 | 95.9 | 107 | 0 | > 10 | 102 | 91.1 | 98.8 | 100 | 96.1 |
| S=C(NCCc1ccccn1)Nc1ccc(Br)cn1 [trovirdine] |  | 0 | 0 | 0 |  | > 10 | > 10 | > 10 |  |  |  |  |  | 104 | 100 | 98.4 | 104 | 98.7 | 89.2 | 96.2 | 101 | 102 | 108 | 94.9 | 91.6 | 98.4 | 90 | 98.1 | 0 | > 10 | 103 | 105 | 102 | 106 | 92.1 |
| CCCC(CCC)C(=O)NCC(N)=O [valrocemide] | 0 | 0 |  | 0 | > 10 | > 10 |  | > 10 | 97.3 | 104 | 104 | 97.8 | 101 | 104 | 101 | 97.7 | 104 | 98.9 |  |  |  |  |  | 95.6 | 94.1 | 91.5 | 90.9 | 97.6 | 0 | > 10 | 94.6 | 101 | 95.6 | 102 | 101 |
| CCn1c(=O)c(-c2cc[nH]n2)cc2c(C)nc(N)nc21 [voxtalisib] | 6.1 | 3.1 | 6.8 | 5.2 | 1.55 |  | 1.17 | 1.61 | 104 | 104 | 91.2 | 80.8 | 33.5 | 99.3 | 97.3 | 97.9 | 93.1 | 60.3 | 95 | 91.9 | 91 | 71.9 | 32.6 | 102 | 96.7 | 93.5 | 86.5 | 42.9 | 5.4 | 1.84 | 108 | 106 | 101 | 88.5 | 35.4 |
